Reference: PubChem BioAssay AID256 (DTP/NCI, 2004)
Where “and” joins values, the source holds several entries; their conditions need not be identical. Equal values may be shown once. Inconclusive results and toxic doses are left out. The calls were made as follows: active = survival T/C of 150% or more; inactive = T/C below 125% in these data.

Test system: CD2F1 mice, L1210 leukemia ip, survival T/C
Experiment: NCI In Vivo Anticancer Drug Screen. Data for tumor model L1210 Leukemia (intraperitoneal) in CD2F1 (CDF1) mice
Conditions: higher = longer survival
Procedure, shortened: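 Implant tumor; dose compound or vehicle; measure endpoint in both groups; report treated divided by control.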

[1] = endpoint: mean survival time, dose: 100.0 mg/kg/injection, schedule: Q01DX009 (ip), vehicle: saline with Tween-80
[2] = endpoint: mean survival time, dose: 100.0 mg/kg/injection, schedule: Q04DX003 (ip), vehicle: saline with Tween-80
[3] = endpoint: mean survival time, dose: 200.0 mg/kg/injection, schedule: Q01DX009 (ip), vehicle: saline with Tween-80
[4] = endpoint: mean survival time, dose: 400.0 mg/kg/injection, schedule: Q01DX009 (ip), vehicle: saline with Tween-80
[5] = endpoint: mean survival time, dose: 200.0 mg/kg/injection, schedule: Q04DX003 (ip), vehicle: saline with Tween-80
[6] = endpoint: mean survival time, dose: 400.0 mg/kg/injection, schedule: Q04DX003 (ip), vehicle: saline with Tween-80
[7] = endpoint: mean survival time, dose: 100.0 mg/kg/injection, schedule: Q01DX001 (ip), vehicle: saline with Tween-80
[8] = endpoint: mean survival time, dose: 200.0 mg/kg/injection, schedule: Q01DX001 (ip), vehicle: saline with Tween-80
[9] = endpoint: mean survival time, dose: 400.0 mg/kg/injection, schedule: Q01DX001 (ip), vehicle: saline with Tween-80
[10] = endpoint: mean survival time, dose: 100.0 mg/kg/injection, schedule: Q04DX003 (ip), vehicle: saline
[11] = endpoint: mean survival time, dose: 200.0 mg/kg/injection, schedule: Q04DX003 (ip), vehicle: saline
[12] = endpoint: mean survival time, dose: 400.0 mg/kg/injection, schedule: Q04DX003 (ip), vehicle: saline
[13] = endpoint: mean survival time, dose: 100.0 mg/kg/injection, schedule: Q01DX001 (ip), vehicle: saline
[14] = endpoint: mean survival time, dose: 200.0 mg/kg/injection, schedule: Q01DX001 (ip), vehicle: saline

Measured: T/C

CC1(C)OC2C3COP(=O)(N(CCCl)CCCl)NC(O3)C2O1 (stereo not given)
inactive: endpoint: mean survival time, dose: 3.9 mg/kg/injection, schedule: Q01DX001 (ip), vehicle: distilled water + Tween-80 98 % of control | endpoint: mean survival time, dose: 3.9 mg/kg/injection, schedule: Q01DX001 (ip), vehicle: distilled water + alcohol 103 % of control | endpoint: mean survival time, dose: 7.8 mg/kg/injection, schedule: Q01DX001 (ip), vehicle: distilled water + Tween-80 98 % of control | endpoint: mean survival time, dose: 7.8 mg/kg/injection, schedule: Q01DX001 (ip), vehicle: distilled water + alcohol 108 % of control | endpoint: mean survival time, dose: 15.6 mg/kg/injection, schedule: Q01DX001 (ip), vehicle: distilled water + alcohol 98 % of control | endpoint: mean survival time, dose: 31.2 mg/kg/injection, schedule: Q01DX001 (ip), vehicle: distilled water + Tween-80 98 % of control | endpoint: mean survival time, dose: 31.2 mg/kg/injection, schedule: Q01DX001 (ip), vehicle: distilled water + alcohol 103 % of control | endpoint: mean survival time, dose: 31.3 mg/kg/injection, schedule: Q01DX001 (ip), vehicle: distilled water + Tween-80 98 % of control | endpoint: mean survival time, dose: 62.5 mg/kg/injection, schedule: Q01DX001 (ip), vehicle: distilled water + Tween-80 98 % of control | endpoint: mean survival time, dose: 125.0 mg/kg/injection, schedule: Q01DX001 (ip), vehicle: distilled water + Tween-80 96 % of control | endpoint: mean survival time, dose: 250.0 mg/kg/injection, schedule: Q01DX001 (ip), vehicle: distilled water + Tween-80 96 % of control | endpoint: mean survival time, dose: 500.0 mg/kg/injection, schedule: Q01DX001 (ip), vehicle: distilled water + Tween-80 97 % of control

O=[N+]([O-])c1ccc(NCc2ccccc2)c([N+](=O)[O-])c1
inactive: endpoint: mean survival time, dose: 100.0 mg/kg/injection, schedule: Q04DX003 (ip), vehicle: gum acacia 98 % of control | endpoint: mean survival time, dose: 200.0 mg/kg/injection, schedule: Q04DX003 (ip), vehicle: gum acacia 106 % of control | endpoint: mean survival time, dose: 400.0 mg/kg/injection, schedule: Q04DX003 (ip), vehicle: gum acacia 102 % of control

Cc1ccc2c(c1Oc1ccc(S(N)(=O)=O)cc1)C(=O)c1ccccc1C2=O
inactive: [1] 103 % of control | endpoint: mean survival time, dose: 100.0 mg/kg/injection, schedule: Q04DX003 (ip), vehicle: saline sonified 88 % of control | [2] 90 % of control | [3] 101 % of control | [4] 97 % of control | endpoint: mean survival time, dose: 400.0 mg/kg/injection, schedule: Q04DX003 (ip), vehicle: saline sonified 107 % of control

CC1=NN(c2ccccc2)C(=O)C1
inactive: [1] 98 % of control | [2] 94 % of control | [3] 102 % of control | [5] 92 % of control | [4] 96 % of control | [6] 86 % of control

c1ccc2c(c1)CCc1ccccc1N2
inactive: [7] 100 % of control | [8] 100 % of control | [9] 91 % of control

O=c1[nH]ncc2c(C3OC(CO)C(O)C3O)cnn12 (stereo not given)
inactive: endpoint: median survival time, dose: 4.75 mg/kg/injection, schedule: Q01DX005 (ip), vehicle: distilled water + Tween-80 109 % of control | endpoint: median survival time, dose: 9.5 mg/kg/injection, schedule: Q01DX005 (ip), vehicle: distilled water + Tween-80 100 % of control | endpoint: median survival time, dose: 19.0 mg/kg/injection, schedule: Q01DX005 (ip), vehicle: distilled water + Tween-80 106 % of control | endpoint: median survival time, dose: 38.0 mg/kg/injection, schedule: Q01DX005 (ip), vehicle: distilled water + Tween-80 102 % of control | endpoint: median survival time, dose: 76.0 mg/kg/injection, schedule: Q01DX005 (ip), vehicle: distilled water + Tween-80 98 % of control

CC(C)c1ccc(C(=O)O)cc1S(=O)(=O)Cl
inactive: endpoint: mean survival time, dose: 25.0 mg/kg/injection, schedule: Q04DX003 (ip), vehicle: saline 98 % of control | endpoint: mean survival time, dose: 50.0 mg/kg/injection, schedule: Q04DX003 (ip), vehicle: saline 109 % of control | [10] 100 % of control and 107 % of control

O=C(Nc1ccc(Cl)cc1)c1cc(Br)ccc1O
inactive: [2] 92 % of control | [5] 88 % of control | [6] 92 % of control

O=C(C1=CN(CCCO)CCC1)c1cc2ccccc2[nH]1
inactive: [7] 94 % of control | [8] 94 % of control | [9] 97 % of control

CCC1(CC)C=CCC/C1=N\NS(=O)(=O)c1ccc(C)cc1
inactive: endpoint: mean survival time, dose: 50.0 mg/kg/injection, schedule: Q01DX009 (ip), vehicle: saline with Tween-80 95 % of control | [1] 90 % of control | [2] 95 % of control | [3] 93 % of control | [5] 91 % of control

CC/C(=N/O)C(N)=O
inactive: [2] 100 % of control | [5] 103 % of control | [6] 105 % of control

O=C1CC(=O)N(C2OC(CO)C(O)C2O)C(=O)N1 (stereo not given)
inactive: endpoint: mean survival time, dose: 12.5 mg/kg/injection, schedule: Q01DX005 (ip), vehicle: water 94 % of control | endpoint: mean survival time, dose: 25.0 mg/kg/injection, schedule: Q01DX005 (ip), vehicle: water 100 % of control | endpoint: mean survival time, dose: 50.0 mg/kg/injection, schedule: Q01DX005 (ip), vehicle: water 106 % of control | endpoint: mean survival time, dose: 100.0 mg/kg/injection, schedule: Q01DX005 (ip), vehicle: water 106 % of control | endpoint: mean survival time, dose: 200.0 mg/kg/injection, schedule: Q01DX005 (ip), vehicle: water 105 % of control | endpoint: mean survival time, dose: 400.0 mg/kg/injection, schedule: Q01DX005 (ip), vehicle: water 100 % of control

C#CCn1c2ccccc2c2ccccc21
inactive: [10] 106 % of control | [11] 98 % of control | [12] 104 % of control

O=[N+]([O-])c1ccc(/C=C/C=C\c2cccc(S(=O)(=O)F)c2)c(Cl)c1
inactive: endpoint: mean survival time, dose: 100.0 mg/kg/injection, schedule: Q01DX009 (ip), vehicle: acetone 100 % of control | [2] 102 % of control | endpoint: mean survival time, dose: 200.0 mg/kg/injection, schedule: Q01DX009 (ip), vehicle: acetone 104 % of control | [5] 97 % of control | endpoint: mean survival time, dose: 400.0 mg/kg/injection, schedule: Q01DX009 (ip), vehicle: acetone 104 % of control | [6] 94 % of control

COc1ccccc1C1(O)c2ccccc2Sc2cccc(OC)c21 (stereo not given)
inactive: [1] 86 % of control | [3] 89 % of control | [4] 94 % of control

CCSCCCCO
inactive: endpoint: mean survival time, dose: 75.0 mg/kg/injection, schedule: Q04DX003 (ip), vehicle: saline 97 % of control | endpoint: mean survival time, dose: 150.0 mg/kg/injection, schedule: Q04DX003 (ip), vehicle: saline 103 % of control | endpoint: mean survival time, dose: 300.0 mg/kg/injection, schedule: Q04DX003 (ip), vehicle: saline 98 % of control

CC(C)c1cc2cc(Br)ccc2o1
inactive: [13] 103 % of control | [14] 95 % of control

CC(=O)OC1CCC(C(C)(C)C)CC1 (stereo not given)
inactive: [10] 102 % of control | [11] 95 % of control | [12] 96 % of control

O=C(O)c1cc(N2CCCCC2)ccn1
inactive: [13] 94 % of control | [14] 100 % of control

O=Cc1c2ccc(Cl)cc2nc2cc(Cl)ccc12
inactive: [2] 112 % of control | [5] 93 % of control | [6] 102 % of control

COc1ccc(C(OC(=O)Oc2ccccc2)c2ccccc2)cc1 (stereo not given)
inactive: endpoint: mean survival time, dose: 100.0 mg/kg/injection, schedule: Q04DX002 (ip), vehicle: other 93 % of control | endpoint: mean survival time, dose: 200.0 mg/kg/injection, schedule: Q04DX002 (ip), vehicle: other 96 % of control | endpoint: mean survival time, dose: 400.0 mg/kg/injection, schedule: Q04DX002 (ip), vehicle: other 96 % of control

O=C1CCc2cccc(O)c21
inactive: [1] 98 % of control | [2] 101 % of control | [3] 93 % of control | [5] 97 % of control | [4] 95 % of control | [6] 108 % of control

O=NC1C2C=CC(C2)C1Cl (stereo not given)
inactive: [13] 93 % of control | [14] 88 % of control | endpoint: mean survival time, dose: 400.0 mg/kg/injection, schedule: Q01DX001 (ip), vehicle: saline 96 % of control
